Experimental data reported in ChEMBL document CHEMBL5325407, “Structure-based development of potent Plasmodium falciparum M1 and M17 aminopeptidase selective and dual inhibitors via S1'-region optimisation” (Eur J Med Chem, 2023).
Converted amounts (≈) assume the structure as drawn. The source made the active and inactive calls. No cut-off for these calls is given here.

What was measured:
[1] = (§1) Inhibition of C-terminal 6-His tagged Plasmodium falciparum M17 aminopeptidase (85 to 605 residues) expressed in Escherichia coli BL21 (DE3) cells using H-Leu-NHMec as substrate assessed as apparent inhibition constant preincubated for 10 mins followed by substrate addition by spectrofluorimetric analysis; conditions: read-out: Ki(app)
[2] = as §1, with “M1” for “M17”, “(195” for “(85”, “1085” for “605”, “BL21(DE3)” for “BL21 (DE3)”; conditions: read-out: Ki(app)
Plasmodium falciparum [3] = test: Antiplasmodial activity against drug-sensitive Plasmodium falciparum 3D7 infected in Red blood cell assessed as growth inhibition measured after 72 hrs by LDH assay; assay type: functional, organism-based; conditions: 3D7, Erythrocyte
[4] = as §1, with “M1” for “M17”, “(195” for “(85”, “1085” for “605”, “BL21(DE3)” for “BL21 (DE3)”, “initial” for “apparent”
Plasmodium falciparum [5] = test: Inhibition of C-terminal 6-His tagged Plasmodium falciparum M17 aminopeptidase (85 to 605 residues) expressed in Escherichia coli BL21 (DE3) cells using H-Leu-NHMec as substrate at less than 500 nM preincubated for 10 mins followed by substrate addition by spectrofluorimetric analysis
Plasmodium falciparum [6] = test: Inhibition of C-terminal 6-His tagged Plasmodium falciparum M1 aminopeptidase (195 to 1085 residues) expressed in Escherichia coli BL21(DE3) cells using H-Leu-NHMec as substrate at less than 500 nM preincubated for 10 mins followed by substrate addition by spectrofluorimetric analysis
[7] = Metabolic stability in mouse liver microsomes assessed as half life measured for 60 mins in presence of NADPH; assay type: ADME, Microsome
[8] = Inhibition of TEV-fused Plasmodium falciparum M17 aminopeptidase (192 to 1085 residues) expressed in Escherichia coli Rosetta 2 (DE3) cells using alanine para-nitroanilide as substrate assessed as apparent inhibition constant measured after 30 mins by spectrophotometric analysis; conditions: read-out: Ki(app)
[9] = Kinetic solubility of the compound in 0.01 M HCL at pH 2.0 measured after 30 mins by nephelometric analysis; assay type: physicochemical; conditions: read-out: Kinetic_solubility
[10] = Metabolic stability in human liver microsomes assessed as half life measured for 60 mins in presence of NADPH; assay type: ADME, Microsome
[11] = Kinetic solubility of the compound in phosphate buffer at pH 6.5 measured after 30 mins by nephelometric analysis; assay type: physicochemical; conditions: read-out: Kinetic_solubility
[12] = Inhibition of TEV-fused Plasmodium falciparum M1 aminopeptidase (192 to 1085 residues) expressed in Escherichia coli Rosetta 2 (DE3) cells using alanine para-nitroanilide as substrate assessed as apparent inhibition constant measured after 30 mins by spectrophotometric analysis; conditions: read-out: Ki(app)

Row | Structure (SMILES) | Ki [1] [µM] | Ki [2] [µM] | EC50 (Plasmodium falciparum [3]) [µM] | also measured
1 | O=C(CNc1cccc(F)c1)NC(C(=O)NO)c1ccc(Cl)cc1 (stereo not given) | > 0.5 | 0.049 | 0.175 | –
2 | COc1ccccc1NCC(=O)NC(C(=O)NO)c1ccc(-c2cc(F)c(F)c(F)c2)cc1 (stereo not given) | > 0.5 | > 0.5 | – | –
3 | O=C(CSc1ccccc1)NC(C(=O)NO)c1ccc(Br)cc1 (stereo not given) | 0.287 | 0.068 | 0.23 | –
4 | CC1(C(=O)NC(C(=O)NO)c2ccc(-c3cc(F)c(F)c(F)c3)cc2)COC1 (stereo not given) | 0.294 | 0.439 | 0.61 | –
5 | O=C(CNc1ccccc1)NC(C(=O)NO)c1ccc(Br)cc1 (stereo not given) | > 0.5 | 0.036 | 0.175 | –
6 | CN(C)CC(=O)NC(C(=O)NO)c1ccc(-c2cc(F)c(F)c(F)c2)cc1 (stereo not given) | > 0.5 | 0.185 | 0.48 | –
7 | O=C(CCc1ccccc1)NC(C(=O)NO)c1ccc(Br)cc1 (stereo not given) | 0.014 | 0.222 | 0.205 | –
8 | COc1cccc(NCC(=O)NC(C(=O)NO)c2ccc(-c3cc(F)c(F)c(F)c3)cc2)c1 (stereo not given) | > 0.5 | > 0.5 | – | –
9 | COc1ccc(NCC(=O)NC(C(=O)NO)c2ccc(-c3cc(F)c(F)c(F)c3)cc2)cc1 (stereo not given) | > 0.5 | > 0.5 | – | –
10 | CC(C)(N)C(=O)NC(C(=O)NO)c1ccc(-c2cc(F)c(F)c(F)c2)cc1 (stereo not given) | > 0.5 | 0.227 | 1.2 | –
11 | O=C(CCc1ccccc1)NC(C(=O)NO)c1ccc(-c2cc(F)c(F)c(F)c2)cc1 (stereo not given) | 0.07 | 0.246 | 0.46 | –
12 | O=C(CNc1cc(F)cc(F)c1)NC(C(=O)NO)c1ccc(-c2cc(F)c(F)c(F)c2)cc1 (stereo not given) | > 0.5 | 0.131 | 0.675 | Ki [4]: 0.513 µM
13 | O=C(CN1CCC1)NC(C(=O)NO)c1ccc(-c2cc(F)c(F)c(F)c2)cc1 (stereo not given) | > 0.5 | 0.263 | 1.8 | –
14 | CN1CC(C(=O)NC(C(=O)NO)c2ccc(-c3cc(F)c(F)c(F)c3)cc2)C1 (stereo not given) | > 0.5 | > 0.5 | – | –
15 | CC(C)(C)C(=O)NC(C(=O)NO)c1ccc(-c2cc(F)c(F)c(F)c2)cc1 (stereo not given) | – | – | 0.34 | –
16 | O=C(CNc1ccccc1F)NC(C(=O)NO)c1ccc(Br)cc1 (stereo not given) | > 0.5 | 0.026 | 0.155 | –
17 | O=C(CNc1ccc(F)c(F)c1)NC(C(=O)NO)c1ccc(Br)cc1 (stereo not given) | > 0.5 | > 0.5 | – | –
18 | COc1cccc(NCC(=O)NC(C(=O)NO)c2ccc(Br)cc2)c1 (stereo not given) | > 0.5 | 0.072 | 0.102 | inhibition (Plasmodium falciparum [5]): inactive
19 | CC(C)(O)CC(=O)NC(C(=O)NO)c1ccc(-c2cc(F)c(F)c(F)c2)cc1 (stereo not given) | 0.09 | 0.154 | 0.155 | –
20 | CN(CC(=O)NC(C(=O)NO)c1ccc(Br)cc1)c1ccccc1 (stereo not given) | > 0.5 | 0.018 | 0.145 | –

Row | Structure (SMILES) | Ki [1] [µM] | Ki [2] [µM] | EC50 (Plasmodium falciparum [3]) [µM] | also measured
21 | O=C(CNc1ccc(F)cc1)NC(C(=O)NO)c1ccc(Cl)cc1 (stereo not given) | > 0.5 | 0.049 | 0.22 | –
22 | O=C(CNc1ccccc1F)NC(C(=O)NO)c1ccc(-c2cc(F)c(F)c(F)c2)cc1 (stereo not given) | > 0.5 | > 0.5 | 0.285 | –
23 | CN(C)C(C)(C)CC(=O)NC(C(=O)NO)c1ccc(-c2cc(F)c(F)c(F)c2)cc1 (stereo not given) | 0.293 | 0.5 | 0.825 | –
24 | O=C(CSc1ccccc1)NC(C(=O)NO)c1ccc(-c2cc(F)c(F)c(F)c2)cc1 (stereo not given) | 0.238 | 0.195 | 0.43 | –
25 | O=C(NC(C(=O)NO)c1ccc(-c2cc(F)c(F)c(F)c2)cc1)C1CCO1 (stereo not given) | > 0.5 | 0.203 | 0.35 | –
26 | O=C(NC(C(=O)NO)c1ccc(-c2cc(F)c(F)c(F)c2)cc1)C1CCNC1 (stereo not given) | > 0.5 | > 0.5 | – | –
27 | CCN(CC)CCCC(C)Nc1ccnc2cc(Cl)ccc12 (stereo not given) [CHLOROQUINE] | – | – | 0.033 | –
28 | CN(CC(=O)NC(C(=O)NO)c1ccc(-c2cc(F)c(F)c(F)c2)cc1)c1ccccc1 (stereo not given) | > 0.5 | > 0.5 | – | –
29 | O=C(CNc1ccc2cc[nH]c2c1)NC(C(=O)NO)c1ccc(Br)cc1 (stereo not given) | > 0.5 | 0.035 | 0.155 | –
30 | O=C(COc1ccccc1)NC(C(=O)NO)c1ccc(Br)cc1 (stereo not given) | 0.23 | > 0.5 | 0.62 | –
31 | O=C(CNc1cccc(F)c1)NC(C(=O)NO)c1ccc(Br)cc1 (stereo not given) | > 0.5 | 0.021 | 0.135 | –
32 | O=C(NC(C(=O)NO)c1ccc(-c2cc(F)c(F)c(F)c2)cc1)C1CNC1 (stereo not given) | > 0.5 | > 0.5 | – | –
33 | CN1CCCC1C(=O)NC(C(=O)NO)c1ccc(-c2cc(F)c(F)c(F)c2)cc1 (stereo not given) | > 0.5 | > 0.5 | – | –
34 | O=C(NC(C(=O)NO)c1ccc(-c2cc(F)c(F)c(F)c2)cc1)c1cc2ccccc2[nH]1 (stereo not given) | > 0.5 | > 0.5 | – | inhibition (Plasmodium falciparum [6]): inactive; inhibition (Plasmodium falciparum [5]): inactive
35 | O=C(COc1ccccc1)NC(C(=O)NO)c1ccc(-c2cc(F)c(F)c(F)c2)cc1 (stereo not given) | 0.137 | 0.39 | 1.45 | –
36 | CC(C)NC(=O)NC(C(=O)NO)c1ccc(-c2cc(F)c(F)c(F)c2)cc1 (stereo not given) | 0.12 | > 0.5 | 0.285 | –
37 | CN1CCC(C(=O)NC(C(=O)NO)c2ccc(-c3cc(F)c(F)c(F)c3)cc2)C1 (stereo not given) | > 0.5 | > 0.5 | – | –
38 | O=C(NC(C(=O)NO)c1ccc(-c2cc(F)c(F)c(F)c2)cc1)C1CCN1 (stereo not given) | > 0.5 | > 0.5 | – | –
39 | O=C(CNc1ccc(F)cc1)NC(C(=O)NO)c1ccc(Br)cc1 (stereo not given) | > 0.5 | 0.038 | 0.25 | –
40 | CC(C)(C)NC(=O)NC(C(=O)NO)c1ccc(-c2cc(F)c(F)c(F)c2)cc1 (stereo not given) | 0.43 | > 0.5 | – | –

Row | Structure (SMILES) | Ki [1] [µM] | Ki [2] [µM] | EC50 (Plasmodium falciparum [3]) [µM] | also measured
41 | O=C(CNc1ccc2cc[nH]c2c1)NC(C(=O)NO)c1ccc(-c2cc(F)c(F)c(F)c2)cc1 (stereo not given) | > 0.5 | 0.146 | 0.22 | –
42 | O=C(CN1CCCC1)NC(C(=O)NO)c1ccc(-c2cc(F)c(F)c(F)c2)cc1 (stereo not given) | > 0.5 | 0.456 | 0.725 | –
43 | O=C(CN1CCCCC1)NC(C(=O)NO)c1ccc(-c2cc(F)c(F)c(F)c2)cc1 (stereo not given) | > 0.5 | > 0.5 | – | –
44 | CN(C)C(C)(C)C(=O)NC(C(=O)NO)c1ccc(-c2cc(F)c(F)c(F)c2)cc1 (stereo not given) | > 0.5 | > 0.5 | – | –
45 | O=C(CNc1cccc(F)c1)NC(C(=O)NO)c1ccc(-c2cc(F)c(F)c(F)c2)cc1 (stereo not given) | > 0.5 | > 0.5 | – | –
46 | O=C(NC(C(=O)NO)c1ccc(-c2cc(F)c(F)c(F)c2)cc1)C1CCCN1 (stereo not given) | > 0.5 | 0.33 | 0.625 | –
47 | O=C(NC(C(=O)NO)c1ccc(-c2cc(F)c(F)c(F)c2)cc1)C1CCOC1 (stereo not given) | 0.307 | 0.259 | 0.605 | –
48 | O=C(CNc1ccc(F)c(F)c1)NC(C(=O)NO)c1ccc(-c2cc(F)c(F)c(F)c2)cc1 (stereo not given) | > 0.5 | > 0.5 | – | –
49 | COc1ccc(NCC(=O)NC(C(=O)NO)c2ccc(Br)cc2)cc1 (stereo not given) | > 0.5 | 0.088 | 0.114 | inhibition (Plasmodium falciparum [5]): inactive
50 | CN1CCC1C(=O)NC(C(=O)NO)c1ccc(-c2cc(F)c(F)c(F)c2)cc1 (stereo not given) | > 0.5 | > 0.5 | – | –
51 | O=C(NC(C(=O)NO)c1ccc(Br)cc1)c1cc2ccccc2[nH]1 (stereo not given) | > 0.5 | > 0.5 | – | –
52 | COc1ccccc1NCC(=O)NC(C(=O)NO)c1ccc(Br)cc1 (stereo not given) | > 0.5 | 0.128 | 0.145 | inhibition (Plasmodium falciparum [5]): inactive
53 | O=C(CNc1ccccc1)NC(C(=O)NO)c1ccc(Cl)cc1 (stereo not given) | > 0.5 | 0.079 | 0.2 | –
54 | O=C(CNc1cc(F)cc(F)c1)NC(C(=O)NO)c1ccc(Br)cc1 (stereo not given) | > 0.5 | 0.016 | 0.25 | –
55 | CC(C)(C)CC(=O)NC(C(=O)NO)c1ccc(-c2cc(F)c(F)c(F)c2)cc1 (stereo not given) | – | – | 0.063 | half-life [7]: 1.5 h; Ki [8]: 0.101 µM; solubility kinetic at 0.5 h [9]: 12.5 µg/mL (≈ 31.7 µM); half-life [10]: 2.48 h; solubility kinetic at 0.5 h [11]: 12.5 µg/mL (≈ 31.7 µM); Ki [12]: 0.269 µM
56 | O=C(NC1CCCC1)NC(C(=O)NO)c1ccc(-c2cc(F)c(F)c(F)c2)cc1 (stereo not given) | 0.122 | 0.311 | 0.37 | –
57 | CC(C)(N)CC(=O)NC(C(=O)NO)c1ccc(-c2cc(F)c(F)c(F)c2)cc1 (stereo not given) | 0.028 | 0.32 | 1.35 | –
58 | O=C(CNc1ccc(F)cc1)NC(C(=O)NO)c1ccc(-c2cc(F)c(F)c(F)c2)cc1 (stereo not given) | > 0.5 | > 0.5 | – | –
